Measured values reported in US20060069289A1, “Process for production 2-deoxyaldose compound” (MITSUI CHEMICALS, INC., priority 2003, published 2006).

Assay: Stability test of KDG to heat in water (remaining rate observed according to HPLC)
Type: physicochemical
Details: for Remaining Rate of KDG: water 10 times the amount of KDG
Description: HPLC Analytic Conditions: ShodexAsahipack NH2-P50 (manufactured by Showa Denko K.K.), 50 mM sodium hydrogen phosphate aqueous solution, flow rate of 1 ml/min. and detection UV of 210 nm.
1.21 g (5.61 mmole) of KDG potassium salt was dissolved in 10 g of water (10 times the amount of KDG). pH of the solution was 7.3. Subsequently, when 64 mg (1.69 mmole: 0.3 equivalent) of granular sodium borohydride was added at 25° C., the reaction temperature increased to 33° C. Furthermore, pH after the completion of the reaction was 10.8. After the reaction was completed, when observed by HPLC, the reaction yield of metasaccharic acid was 94%. The reaction heat was observed as remarkable. […] In order to carry out the reaction with the good yield, stability to the heat of KDG was measured in the presence of water with 10 times the amount of KDG. (Table 1) (Table 2) (Table 3)
Here, the results of stability test to the KDG heat in the presence of water 10 times the amount of KDG are shown below. (Table 4)

**Q.** For `O=C(O)C(O)CC(O)C(O)CO` (stereo not drawn), which “Stability (in words)” value (generated product of the sodium borohydride reduction, aqueous reaction conditions) is on record?
**A.** stable

**Q.** For `O=C(O)C(=O)C[C@H](O)[C@H](O)CO` [KDG, 2-keto-3-deoxy-D-gluconic acid], which “Remaining Rate of KDG” value (pH 7.0, 25° C., 2 hours) is on record?
**A.** 101%

**Q.** And the “Remaining Rate of KDG” value (pH 7.0, 25° C., 4 hours)?
**A.** 100%

**Q.** What about the “Remaining Rate of KDG” value (pH 7.0, 25° C., 21 hours) of the same compound?
**A.** 100%

**Q.** And the “Remaining Rate of KDG” value (pH 7.0, 25° C., 24 hours)?
**A.** 101%

**Q.** What about the “Remaining Rate of KDG” value (pH 7.0, 50° C., 2 hours) of the same compound?
**A.** 100%

**Q.** What about the “Remaining Rate of KDG” value (pH 7.0, 50° C., 4 hours) of the same compound?
**A.** 101%

**Q.** And the “Remaining Rate of KDG” value (pH 7.0, 50° C., 21 hours)?
**A.** 100%

**Q.** And the “Remaining Rate of KDG” value (pH 7.0, 50° C., 24 hours)?
**A.** 99%

**Q.** What about the “Remaining Rate of KDG” value (pH 8.5, 25° C., 2 hours) of the same compound?
**A.** 100%

**Q.** What about the “Remaining Rate of KDG” value (pH 8.5, 25° C., 4 hours) of the same compound?
**A.** 99%

**Q.** What about the “Remaining Rate of KDG” value (pH 8.5, 25° C., 21 hours) of the same compound?
**A.** 101%

**Q.** What about the “Remaining Rate of KDG” value (pH 8.5, 25° C., 24 hours) of the same compound?
**A.** 100%

**Q.** And the “Remaining Rate of KDG” value (pH 8.5, 50° C., 2 hours)?
**A.** 101%

**Q.** What about the “Remaining Rate of KDG” value (pH 8.5, 50° C., 4 hours) of the same compound?
**A.** 100%

**Q.** And the “Remaining Rate of KDG” value (pH 8.5, 50° C., 21 hours)?
**A.** 99%

**Q.** What about the “Remaining Rate of KDG” value (pH 8.5, 50° C., 24 hours) of the same compound?
**A.** 98%

**Q.** What about the “Remaining Rate of KDG” value (pH 10.5, 25° C., 2 hours) of the same compound?
**A.** 102%

**Q.** And the “Remaining Rate of KDG” value (pH 10.5, 25° C., 4 hours)?
**A.** 101%

**Q.** What about the “Remaining Rate of KDG” value (pH 10.5, 25° C., 21 hours) of the same compound?
**A.** 100%

**Q.** And the “Remaining Rate of KDG” value (pH 10.5, 25° C., 24 hours)?
**A.** 101%

**Q.** What about the “Remaining Rate of KDG” value (pH 10.5, 50° C., 2 hours) of the same compound?
**A.** 101%

**Q.** What about the “Remaining Rate of KDG” value (pH 10.5, 50° C., 4 hours) of the same compound?
**A.** 99%

**Q.** What about the “Remaining Rate of KDG” value (pH 10.5, 50° C., 21 hours) of the same compound?
**A.** 94%

**Q.** And the “Remaining Rate of KDG” value (pH 10.5, 50° C., 24 hours)?
**A.** 93%

**Q.** And the “Remaining Rate of KDG” value (pH 12.0, 4° C., 2 hours)?
**A.** 101%

**Q.** And the “Remaining Rate of KDG” value (pH 12.0, 4° C., 4 hours)?
**A.** 99%

**Q.** And the “Remaining Rate of KDG” value (pH 12.0, 4° C., 21 hours)?
**A.** 100%

**Q.** And the “Remaining Rate of KDG” value (pH 12.0, 4° C., 24 hours)?
**A.** 98%

**Q.** And the “Remaining Rate of KDG” value (pH 12.0, 25° C., 2 hours)?
**A.** 99%

**Q.** What about the “Remaining Rate of KDG” value (pH 12.0, 25° C., 4 hours) of the same compound?
**A.** 95%

**Q.** And the “Remaining Rate of KDG” value (pH 12.0, 25° C., 21 hours)?
**A.** 84%

**Q.** What about the “Remaining Rate of KDG” value (pH 12.0, 25° C., 24 hours) of the same compound?
**A.** 79%

**Q.** What about the “Stability to heat (in words)” value (pH 12.0, 50° C.) of the same compound?
**A.** remarkably decomposed

**Q.** What about the “Remaining Rate of KDG” value (pH 12.0, 50° C., 2 hours) of the same compound?
**A.** 61%

**Q.** And the “Remaining Rate of KDG” value (pH 12.0, 50° C., 4 hours)?
**A.** 56%
